Assay results taken from US9157917B2, “Applications of Indoloindole and Indoloquinoline dyes” (Biosynth AG, priority 2010, dated 2015).

Experiments:
[1] = tested on: phosphatase coupled goat anti rabbit antibody; assay: Dot blot on nitrocellulose membrane; assay type: biochemical; details: 0.4 mM in assay buffer pH 9.5
Excerpt: Western Blotting is a routine technique for protein analysis. A widely used, cost-effective and simple way for signal detection is the reaction of a chromogenic phosphatase indicator with alkaline phosphatase coupled to the secondary antibody, yielding a colored band or spot. The IO/IQ indicators offer an easy way for fluorescent and chromogenic western blotting based on the same principle as the common chromogenic western blotting, the only difference being the phosphatase indicator. […] In addition, after longer incubation the dots were also clearly identified under white light through their yellow color. Thus, IO/IQ indicators offer a way of performing chromogenic and fluorogenic blotting assay at the same time.
0.16 μg of beta-galactosidase in 4 μl of phosphate buffer was spotted on a nitrocellulose membrane. The membrane was dried for 15 min and then blocked in TBS-T (20 mM Tris-HCl, 150 mM NaCl, 0.05% Tween20, pH 7.5) with 5% BSA for one hour. Then the membrane was incubated with a rabbit anti-beta-galactosidase antibody in TBS-T/5% BSA for one hour, washed three times for 5 min in TBS-T, and incubated with a phosphatase coupled goat anti rabbit antibody in TBS-T/5% BSA for one hour. […]

E. coli [2] = assay: Peptone broth culture in tubes
E. coli [3] = assay: Fluorescence of colonies on membrane filters; assay type: cell-based; details: Naked nutrient agar, 0.4 mM, 14-16 hours at 37° C.
S. enteritidis [4] = assay: Peptone broth culture in tubes
[5] = Release of dyes from precursors through heat in PP tubes containing PE pellets; assay type: physicochemical; details: PP tubes and PE pellets (emptied and flushed with water) after heating for 40 min at 90° C.
Procedure: As a further example the release of Aldol™ 470-, 495-, and 515 dyes from various Aldol™ acetate precursors through heat is given: The compounds were incubated at room temperature and at 90° C. for 40 min in PP tubes containing PE pellets. […] Whereas for all tubes at room temperature neither coloration nor fluorescence was detected, the Aldol™ acetates but not the Aldol™ galactosides were instable at 90° C. and led to fluorescence of the PP and PE host (Table 2).

[6] = molecular target: E. coli beta-galactosidase (Escherichia coli, UniProt P00722)
Procedure: 100 mM sodium phosphate buffer (pH 7.3) containing 1 mM MgCl2 and 0.5 mM Aldol™ 495 beta-D-galactoside, was distributed into glass, polystyrene and polypropylene tubes (two of each). Purified E. coli beta-galactosidase was added to half of the tubes, the other half serving as negative controls.

S. enteritidis [7] = assay: Fluorescence of Aldol 495 nonanoate in nutrient broth cultures; details: for Fluorescence values: S. enteritidis
[8] = Fluorescence of Aldol 495 nonanoate in nutrient broth, sterile control; assay type: physicochemical
[9] = tested on: various bacterial strains; assay: Nonanoate indicators in buffered peptone water in polystyrene plates; assay type: cell-based; details: 0.4 mM, polystyrene plate, 37° C., 48 hours, excitation 360 nm, emission 560 nm
Procedure: Buffered peptone water containing either 0.4 mM Aldol™ 495 nonanoate or 0.2 mM 4-methylumbelliferyl nonanoate was dispensed in a microtiter plate and inoculated with about 700 cfu/ml of various bacterial strains. […] An excitation wavelength of 360 nm was used for both dyes, the emission wavelength was 560 nm for the Aldol™ 495 dye and 460 nm for the 4-methylumbelliferone.

E. coli [10] = assay: Fluorescence of Aldol 495 nonanoate in nutrient broth cultures; assay type: cell-based
Salmonella = Salmonella grown in medium with precursor emulsion in glass tubes; assay type: cell-based; details: medium without detergents

Sequence of E. coli beta-galactosidase (P00722 2-1024): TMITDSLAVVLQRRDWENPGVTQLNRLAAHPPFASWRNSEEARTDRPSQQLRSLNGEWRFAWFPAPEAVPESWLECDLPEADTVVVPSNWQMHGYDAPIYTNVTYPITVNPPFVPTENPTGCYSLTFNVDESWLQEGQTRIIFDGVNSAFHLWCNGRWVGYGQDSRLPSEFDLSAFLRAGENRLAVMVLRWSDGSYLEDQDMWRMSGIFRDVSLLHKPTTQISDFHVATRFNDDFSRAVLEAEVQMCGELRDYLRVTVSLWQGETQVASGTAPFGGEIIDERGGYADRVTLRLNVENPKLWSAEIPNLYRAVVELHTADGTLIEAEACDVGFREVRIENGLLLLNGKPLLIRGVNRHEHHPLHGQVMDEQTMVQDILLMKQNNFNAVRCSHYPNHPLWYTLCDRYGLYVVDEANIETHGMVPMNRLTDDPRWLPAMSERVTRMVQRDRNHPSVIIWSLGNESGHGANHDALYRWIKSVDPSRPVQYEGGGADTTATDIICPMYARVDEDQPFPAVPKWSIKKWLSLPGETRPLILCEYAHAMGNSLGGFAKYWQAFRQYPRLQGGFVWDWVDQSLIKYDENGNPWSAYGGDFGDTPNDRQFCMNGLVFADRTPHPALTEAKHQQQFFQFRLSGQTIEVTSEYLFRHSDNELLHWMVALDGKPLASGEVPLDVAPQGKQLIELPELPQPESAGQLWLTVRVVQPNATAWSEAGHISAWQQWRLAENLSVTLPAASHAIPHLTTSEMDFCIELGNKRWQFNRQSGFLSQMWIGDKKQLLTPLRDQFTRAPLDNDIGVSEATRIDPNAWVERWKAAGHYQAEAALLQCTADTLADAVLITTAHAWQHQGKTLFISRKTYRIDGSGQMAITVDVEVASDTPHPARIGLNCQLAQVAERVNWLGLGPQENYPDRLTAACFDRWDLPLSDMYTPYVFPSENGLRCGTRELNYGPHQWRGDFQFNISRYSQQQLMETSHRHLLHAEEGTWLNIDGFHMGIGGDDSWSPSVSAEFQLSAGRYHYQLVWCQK

Structure (SMILES): COc1ccc(C(=O)c2ccccc2-n2cc(OP(=O)(O)O)c3ccccc32)c(OC)c1 [Aldol™ 470 phosphate]
- Fluorescence or coloration of spot of alpha-amylase (negative control) [1]: No fluorescence or coloration

Structure (SMILES): Cn1cccc1C(=O)c1ccccc1-n1cc(O[C@@H]2O[C@H](CO)[C@H](O)[C@H](O)[C@H]2O)c2ccc(Cl)cc21 [Aldol™ 495 beta-D-galactoside]
- Fluorescence of PP tube under UV light (366 nm) (E. coli [2]; E. coli, 0.4 mM in peptone broth, 16 h incubation): Strong green
- Fluorescence of glass tube (E. coli [2]; E. coli, 0.4 mM in peptone broth, glass test tubes): no fluorescence
- Fluorescence of PP tube under UV light (366 nm) (E. coli [2]; E. coli, after autoclaving and emptying tube): Strong green
- Fluorescence of PP tube under UV light (366 nm) (E. coli [2]; E. coli, after washing in dish-washer): Strong green
- Stability under autoclaving conditions (E. coli [2]; in the medium tested): stable under autoclaving conditions
- Fluorescence of E. coli colonies (E. coli [3]): No fluorescence
- Fluorescence of PP tube under UV light (366 nm) (S. enteritidis [4]; 0.4 mM in peptone broth, 16 h incubation): No fluorescence
- Fluorescence of glass tube (S. enteritidis [4]; 0.4 mM in peptone broth, glass test tubes): no fluorescence
- Fluorescence of PP tube under UV light (366 nm) (S. enteritidis [4]; after autoclaving and emptying tube): No fluorescence
- Fluorescence of PP tube under UV light (366 nm) (S. enteritidis [4]; after washing in dish-washer): No fluorescence
- Color of tube [5]: No color
- Fluorescence of tube [5]: No fluorescence
- Color under white light ([6]; 0.5 mM, pH 7.3, glass, polystyrene and polypropylene tubes with beta-galactosidase): red-brown precipitate
- Time until new polypropylene tube started to fluoresce after transfer of content ([6]; content of fluorescent PP tube transferred into new PP tube): around 10 minutes

Structure (SMILES): CCCCCCCCC(=O)Oc1cn(-c2ccccc2C(=O)c2cccn2C)c2cc(Cl)ccc12 [Aldol™ 495 nonanoate]
- Fluorescence signal, indicator added from 20 mM stock solution versus 200 mM stock solution (S. enteritidis [7]): stronger fluorescence signal
- Fluorescence values (S. enteritidis [7]; stock solution 50 mM, 0 h): 406 RFU
- Fluorescence values (S. enteritidis [7]; stock solution 50 mM, 12 h): 2922 RFU
- Fluorescence values (S. enteritidis [7]; stock solution 50 mM, 18 h): 10047 RFU
- Fluorescence values (S. enteritidis [7]; stock solution 50 mM, 48 h): 45027 RFU
- Fluorescence values (S. enteritidis [7]; stock solution 50 mM, 120 h): 13424 RFU
- Fluorescence values (S. enteritidis [7]; stock solution 200 mM, 0 h): 412 RFU
- Fluorescence values (S. enteritidis [7]; stock solution 200 mM, 12 h): 1812 RFU
- Fluorescence values (S. enteritidis [7]; stock solution 200 mM, 18 h): 3449 RFU
- Fluorescence values (S. enteritidis [7]; stock solution 200 mM, 48 h): 8403 RFU
- Fluorescence values (S. enteritidis [7]; stock solution 200 mM, 120 h): 5169 RFU
- Fluorescence values ([8]; stock solution 50 mM, 0 h): 392 RFU
- Fluorescence values ([8]; stock solution 50 mM, 12 h): 445 RFU
- Fluorescence values ([8]; stock solution 50 mM, 18 h): 434 RFU
- Fluorescence values ([8]; stock solution 50 mM, 48 h): 511 RFU
- Fluorescence values ([8]; stock solution 50 mM, 120 h): 523 RFU
- Fluorescence values ([8]; stock solution 200 mM, 0 h): 433 RFU
- Fluorescence values ([8]; stock solution 200 mM, 12 h): 399 RFU
- Fluorescence values ([8]; stock solution 200 mM, 18 h): 411 RFU
- Fluorescence values ([8]; stock solution 200 mM, 48 h): 422 RFU
- Fluorescence values ([8]; stock solution 200 mM, 120 h): 455 RFU
- Specificity of fluorescence [9]: specific for Salmonella strains
- Fluorescence values (E. coli [10]; stock solution 50 mM, 0 h): 424 RFU
- Fluorescence values (E. coli [10]; stock solution 50 mM, 12 h): 463 RFU
- Fluorescence values (E. coli [10]; stock solution 50 mM, 18 h): 551 RFU
- Fluorescence values (E. coli [10]; stock solution 50 mM, 48 h): 1710 RFU
- Fluorescence values (E. coli [10]; stock solution 50 mM, 120 h): 3851 RFU
- Fluorescence values (E. coli [10]; stock solution 200 mM, 0 h): 444 RFU
- Fluorescence values (E. coli [10]; stock solution 200 mM, 12 h): 404 RFU
- Fluorescence values (E. coli [10]; stock solution 200 mM, 18 h): 468 RFU
- Fluorescence values (E. coli [10]; stock solution 200 mM, 48 h): 774 RFU
- Fluorescence values (E. coli [10]; stock solution 200 mM, 120 h): 1924 RFU
- Fluorescence of Salmonella culture (Salmonella): yellow green fluorescence
